Key:
[1] = test system: bacterial nitroreductase over-expressing E. coli strains; experiment: IC50 (turbidity) in selected NTR over-expressing library strains; assay type: cell-based, Escherichia coli; details: 4 h post-challenge, serial dilution
Protocol: FIG. 2.3 illustrates the IC50 of compound 67 for selected NTR library strains (i.e. the concentration of compound 67 that yielded only 50% turbidity relative to an unchallenged control 4 h post-challenge, in replicate cultures across a serial dilution of compound 67). The strains selected were all those observed to have SOS activity above the empty plasmid control (“Empty”) in response to challenge with compound 67 as illustrated in FIG. 2(B), plus NfsB (E.c) as a negative control. For the IC50 assays, 100 μl of overnight cultures were used to inoculate 2 ml M63 minimal medium supplemented with 100 μg·ml^−1 ampicillin and 50 μM IPTG and incubated at 30° C., 200 rpm for 3.5 h. 40 μL aliquots from each culture were then added to individual wells of a sterile 384 well plate, each already containing 40 μl of ampicillin and IPTG-supplemented M63 medium and a dilution series of compound 67 as indicated on the X-axis of panel A. A. Raw growth curves. Each NTR over-expression strain was tested at least in duplicate (independent replicates), with the exception of NfsB (E.c), which was only measured once. Culture turbidity was monitored by optical density at 600 nm 4 h post-challenge. B. IC50 values calculated by comparison of the challenged cells with the unchallenged control for each strain, after subtracting the initial absorbance values (t=0 h), using SigmaPlot 10.0 (Systat Software Inc., Richmond, Calif.). Errors are 1 standard error of the mean (SEM).
(§1) FIG. 2.4 illustrates the IC50 of compound 93 for selected NTR library strains. […] B. IC50 values calculated by comparison of the challenged cells with the unchallenged control for each strain, after subtracting the initial absorbance values (t=0 h), using SigmaPlot 10.0 (Systat Software Inc., Richmond, Calif.). […]
as §1, with “2.5” for “2.4”, “97” for “93”

[2] = test system: human lung tumour xenograft NCI-H1299 harbouring approximately 5% NfsA-positive cells; experiment: In vivo binding by immunohistochemistry in mixed NfsA/WT xenograft; set-up: species or system NIH-III nude mice; details: 60 mg/kg i.p., tumours excised after 60 minutes; ELK3-51-CY5 antibody
Protocol: FIG. 8 illustrates the in vivo binding of compounds 15, 93 and 67 in the human lung tumour xenograft NCI-H1299 harbouring approximately 5% NfsA-positive cells. […] Mixed NfsA/WT NCI-H1299 cells were inoculated subcutaneously onto the flank of NIH-III nude mice. When the mixed tumours reached approximately 500 mm^3, mice were dosed i.p. with 60 mg/kg of either compound 15, compound 93 or compound 67. After 60 minutes the tumours were excised, and fixed in formalin before being embedded in paraffin wax. Tumour section were cut (5 microns) and mounted onto glass slides for immunodetection of bound adducts of compound 15, compound 93 or compound 67 using the monoclonal antibody ELK3-51 directly conjugated to the fluorophore CY5 (Ex/Em 650/670 nm). Fluorescent microscopy was employed to visualise the presence of cellular adducts of each test compound present in individual tumour cells. Image gain was reduced due to intense fluorescent signal indicating extensive adduct binding. Images were acquired on a Zeiss LSM 710 confocal microscope (×20 magnification).

[3] = test system: wild-type HCT-116 cells; experiment: Flow cytometry of metabolism and binding (EF5 antibody); assay type: cell-based, human; details: for Metabolism and binding by FACS, wild-type HCT-116 cells (FIG. 3): 20 μM, 2 hours, oxic conditions (21% O2, 5% CO2)
Protocol: FIG. 3 illustrates the results of flow cytometry analysis of HCT-116 cells stably expressing E. coli NfsA relative to HCT-116 wild-type cells after in vitro exposure to 20 μM of compounds 15, 93 and 67 for 2 hours. 1×10^6 cells were incubated with test compounds under oxic conditions. Samples were fixed and stained with EF5 antibody Alexa 488 ELK3.51 at 100 μg/ml. Samples were then analysed on a Becton Dickinson FACscan flow cytometer.
FIG. 4 illustrates the results of a second independent flow cytometry analysis of compound 15 and 93 metabolism and binding in wild-type HCT-116 cells, HCT-116 cells stably over-expressing cytochrome P450 reductase (CYPOR), a human one-electron reductase known to metabolise nitroheterocyclic and nitroaromatic compounds, or HCT-116 cells stably expressing the bacterial nitroreductase E. coli NfsA. 1×10^6HCT-116 cells were seeded in 6 well plates underaerobic conditions (21% O2, 5% CO2). After 2 h incubation, drug free control (wild-type HCT-116, foreground), 20 μM (wild-type HCT-116, second plot), 100 μM (wild-type HCT-116, third plot), 20 μM (HCT-116-CYPOR, forth plot), 100 μM (HCT-116-CYPOR, fifth plot) or 20 μM (HCT-116-NfsA, sixth plot) of compound 15 or 93 was added. After 2 h incubation cells were harvested and fixed with paraformaldehyde before being incubated overnight with 100 μl of 75 μg/ml EF5 CY5 conjugated antibody. Samples were then analysed on a Becton Dickinson FACscan flow cytometer.
FIG. 6 illustrates the results of flow cytometry analysis of compound 15 and 93 metabolism and binding in wild-type HCT-116 cells and HCT-116 cells stably over-expressing cytochrome P450 reductase (CYPOR), a human one-electron reductase known to metabolise nitroheterocyclic and nitroaromatic compounds. 1×10^6 HCT-116 cells were seeded in 6 well plates underanoxic conditions. After 2 h incubation, drug free control (wild-type HCT-116, foreground), 20 μM (wild-type HCT-116, second plot), 100 μM (wild-type HCT-116, third plot), 20 μM (HCT-116-CYPOR, forth plot) or 100 μM (HCT-116-CYPOR, fifth plot) of compound 15 or 93 was added. After 2 h incubation cells were harvested and fixed with paraformaldehyde before being incubated overnight with 100 μl of 75 μg/ml EF5 CY5 conjugated antibody. Samples were then analysed on a Becton Dickinson FACscan flow cytometer.

[4] = test system: NTR over-expressing E. coli SOS-R2; experiment: Growth Inhibition assay in 58-membered NTR over-expression library; assay type: cell-based, Escherichia coli; details: 4 h incubation; 400 μM compound 67, 130 μM compound 93, 800 μM compound 97
[5] = test system: HCT116 wild type (WT) cancer cells; experiment: Inhibition of cell proliferation, low cell density IC50 assay; assay type: cell-based; details: Homo sapiens, HCT-116; 4 hour drug exposure, washing and regrowth for 5 days
Protocol: IC50 values were determined as the concentration of prodrug required to inhibit cell growth by 50% of untreated controls following 4 hour drug exposure, with washing and regrowth for 5 days. WT:NfsA ratios were determined as the WT IC50/NfsA IC50.

SMILES	Inhibition of bacterial cell growth in NTR over-expressing strains compared to controls [1]	Detection of NfsA expressing cells after in vivo binding (FIG. 8) [2]	Metabolism and binding by FACS, wild-type HCT-116 cells (FIG. 3) [3]	Reductive metabolism at the nitro moiety by NTR library members (NfsA and NfsB families) [4]	IC50 [5]	Metabolism and binding by FACS, wild-type HCT-116 cells (FIG. 4) ([3]; 20 μM and 100 μM, 2 h, aerobic conditions)	Metabolism and binding by FACS, wild-type HCT-116 cells, anoxia (FIG. 6) ([3]; 20 μM and 100 μM, 2 h, anoxic conditions)
Cc1ncc([N+](=O)[O-])n1CC(=O)NCC(F)(F)C(F)(F)F [Compound 67, 2-(2-methyl-5-nitro-1H-imidazol-1-yl)-N-(2,2,3,3,3-pentafluoropropyl)acetamide]	Inhibition of bacterial cell growth was selectively observed	readily detected by immunohistochemistry with single cell resolution	minimal metabolism and binding	readily reductively metabolised at the nitro moiety by the majority of NfsA family members along with a subset of the NfsB family	6.31 mM		
O=C(Cn1cnc([N+](=O)[O-])c1)NCC(F)(F)C(F)(F)F [Compound 93, 2-(4-nitro-1H-imidazol-1-yl)-N-(2,2,3,3,3-pentafluoropropyl)acetamide]	Inhibition of bacterial cell growth was selectively observed	readily detected by immunohistochemistry with single cell resolution	minimal metabolism and binding	selectively reductively metabolised at the nitro moiety by the NfsA family	1.45 mM	minimal metabolism and binding	negligible metabolism and binding
